# Measured values published in patent US10065926B2, “Use of substituted dihydrooxindolylsulfonamides, or the salts thereof, for increasing the stress tolerance of plants” (BAYER CROPSCIENCE AKTIENGESELLSCHAFT, priority 2013, dated 2018).
# Target: T1, phosphatase ABI1 via the co-regulator RCAR11/PYR1 (Arabidopsis thaliana, UniProt O49686+P49597)
# T1 sequence (P49597 1-434): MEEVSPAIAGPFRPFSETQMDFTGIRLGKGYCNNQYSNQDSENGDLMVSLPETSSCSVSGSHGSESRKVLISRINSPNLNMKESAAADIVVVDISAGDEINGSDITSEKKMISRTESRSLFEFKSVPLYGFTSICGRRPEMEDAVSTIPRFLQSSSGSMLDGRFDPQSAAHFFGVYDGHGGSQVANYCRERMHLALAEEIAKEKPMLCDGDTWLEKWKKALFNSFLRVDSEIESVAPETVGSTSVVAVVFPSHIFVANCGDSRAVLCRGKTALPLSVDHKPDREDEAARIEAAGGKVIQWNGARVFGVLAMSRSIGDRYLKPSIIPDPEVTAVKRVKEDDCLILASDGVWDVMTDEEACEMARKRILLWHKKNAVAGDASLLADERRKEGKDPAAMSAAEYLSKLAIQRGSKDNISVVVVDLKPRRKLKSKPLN
# T1 sequence (O49686 1-191): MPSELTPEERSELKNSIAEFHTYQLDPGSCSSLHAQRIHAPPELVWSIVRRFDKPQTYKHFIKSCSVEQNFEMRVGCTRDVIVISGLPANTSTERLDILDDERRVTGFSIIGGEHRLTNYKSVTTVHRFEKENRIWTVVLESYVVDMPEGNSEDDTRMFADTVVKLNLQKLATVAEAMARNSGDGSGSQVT
# Assay: In vitro inhibition of phosphatase ABI1 via co-regulator RCAR11/PYR1, MUP dephosphorylation, fluorescence
# Type: biochemical
# Conditions: at a concentration of 5 mM of the substance in a solution of DMSO and water; 35° C., 20 minutes
# From the text: Effects of the phytohormone abscisic acid (ABA) on the behavior of plants under abiotic stress and the mechanism of action of ABA are described in the literature (cf. Abrams et al., WO97/23441, Cutler, Park et al. Science, 2009, 324, 1068; Grill et al. Science, 2009, 324, 1064; Tanokura et al. Biophysics, 2011, 7, 123; Schroeder et al. Plant J. 2010, 61, 290). Therefore, it is possible with the aid of a suitable in vitro test system to derive a correlation between the action of ABA and the stress response of a plant under abiotic stress. In the event of water deficiency (drought stress), plants form the phytohormone abscisic acid (ABA). This binds, along with a co-regulator (Regulatory Component of ABA-Receptor=RCAR according to Grill et al. Science, 2009, 324, 1064 or PYR/PYL according to Cutler et al. Science, 2009, 324, 1068), to a phosphatase (e.g. ABI1, a type 2C protein phosphatase, also abbreviated to PP2C) and inhibits its activity. […] For the determination of activity, the dephosphorylation of 4-methylumbelliferyl phosphate (MUP) was measured at 460 nm. […]
# Enzyme buffer mix and substrate mix were made up 5 minutes prior to the addition and warmed to a temperature of 35° C. […] Finally, a relative fluorescence measurement was made at 35° C. with a BMG Labtech “POLARstar Optima” microplate reader using a 340/10 nm excitation filter and a 460 nm emission filter. […]
structure (smiles),measurement,value
CC1=CC(=O)CC(C)(C)[C@@]1(O)/C=C/C(C)=C\C(=O)O [abscisic acid],ABI1 inhibition,++++ (≥90% inhibition)
